Assay results published in US20180258064A1, “SOLID FORMS OF 3-(5-AMINO-2-METHYL-4-OXO-4H-QUINAZOLIN-3-YL)-PIPERIDINE-2,6-DIONE, AND THEIR PHARMACEUTICAL COMPOSITIONS AND USES” (Celgene Corporation, priority 2017, published 2018).
Structures can show the parent of a compound that is named as a salt.

Assays:
[1] = Dynamic Vapor Sorption (DVS); type: physicochemical; settings: for DVS weight gain from 5 to 95% RH / DVS weight loss from 95 to 5% RH / DVS weight loss upon drying at 5% RH: 25° C.; for DVS weight gain from 5 to 95% RH: adsorption cycle 5 to 95% RH; for DVS weight loss from 95 to 5% RH: desorption cycle 95 to 5% RH
Description: DVS analysis was carried out using a TA Instruments Q5000 Dynamic Vapor Sorption analyzer. The instrument was calibrated with standard weights and a sodium bromide standard for humidity. Approximately 10-25 mg of sample was loaded into a metalcoated quartz pan for analysis. The sample was analyzed at 25° C. with a maximum equilibration time of one hour in 10% relative humidity (RH) steps from 5 to 95% RH (adsorption cycle) and from 95 to 5% RH (desorption cycle). The movement from one step to the next occurred either after satisfying the equilibrium criterion of 0.01% weight change or, if the equilibrium criterion was not met, after one hour. The percent weight change values were calculated using Microsoft Excel®.

[2] = Post-DVS XRPD (solid form after the DVS cycle); type: physicochemical; settings: XRPD pattern after DVS
Source text: The Rigaku Smart-Lab X-ray diffraction system was configured for reflection Bragg-Brentano geometry using a line source X-ray beam. The x-ray source is a Cu Long Fine Focus tube that was operated at 40 kV and 44 mA. That source provides an incident beam profile at the sample that changes from a narrow line at high angles to a broad rectangle at low angles. Beam conditioning slits are used on the line X-ray source to ensure that the maximum beam size is less than 10 mm both along the line and normal to the line. The Bragg-Brentano geometry is a para-focusing geometry controlled by passive divergence and receiving slits with the sample itself acting as the focusing component for the optics. The inherent resolution of Bragg-Brentano geometry is governed in part by the diffractometer radius and the width of the receiving slit used. Typically, the Rigaku Smart-Lab is operated to give peak widths of 0.1° 2θ or less. The axial divergence of the X-ray beam is controlled by 5.0° Soller slits in both the incident and diffracted beam paths. Powder samples were prepared in a low background Si holder using light manual pressure to keep the sample surfaces flat and level with the reference surface of the sample holder. Each sample was analyzed from 2 to 40° 2θ using a continuous scan of 6° 2θ per minute with an effective step size of 0.02° 2θ. DVS analysis was carried out using a TA Instruments Q5000 Dynamic Vapor Sorption analyzer. The instrument was calibrated with standard weights and a sodium bromide standard for humidity. Approximately 10-25 mg of sample was loaded into a metalcoated quartz pan for analysis. The sample was analyzed at 25° C. with a maximum equilibration time of one hour in 10% relative humidity (RH) steps from 5 to 95% RH (adsorption cycle) and from 95 to 5% RH (desorption cycle). The movement from one step to the next occurred either after satisfying the equilibrium criterion of 0.01% weight change or, if the equilibrium criterion was not met, after one hour. The percent weight change values were calculated using Microsoft Excel®.

[3] = listed as Form A of the tosylate salt of Compound 1
[4] = listed as Form A of the mesylate salt of Compound 1
[5] = listed as Form A of the besylate salt of Compound 1
[6] = listed as Form A of the sulfate salt of Compound 1

**Q.** For `Cc1nc2cccc(N)c2c(=O)n1C1CCC(=O)NC1=O` (centres unmarked) [Compound 1 tosylate salt Form A, 3-(5-amino-2-methyl-4-oxo-4H-quinazolin-3-yl)-piperidine-2,6-dione], which “DVS weight gain from 5 to 95% RH” value [1, 3] is on record?
**A.** about 1.15%

**Q.** And the “DVS weight gain from 5 to 95% RH” value ([1]; listed as Tosylate Form A)?
**A.** 1.15% gain from 5 to 95% RH

**Q.** And the “DVS weight loss from 95 to 5% RH” value [1, 3]?
**A.** about 1.17%

**Q.** And the “DVS weight loss from 95 to 5% RH” value ([1]; listed as Tosylate Form A)?
**A.** 1.17% loss from 95 to 5% RH

**Q.** And the “DVS weight loss upon drying at 5% RH” value ([1]; listed as Tosylate Form A)?
**A.** 0.14% loss upon drying at 5%

**Q.** And the “Post-DVS XRPD” value ([2]; listed as Tosylate Form A)?
**A.** Tosylate form B

**Q.** Which “DVS weight gain from 5 to 95% RH” value [1, 4] does the source give for `Cc1nc2cccc(N)c2c(=O)n1C1CCC(=O)NC1=O` (centres unmarked) [Compound 1 mesylate salt Form A, 3-(5-amino-2-methyl-4-oxo-4H-quinazolin-3-yl)-piperidine-2,6-dione] here?
**A.** about 9.79%

**Q.** And the “DVS weight gain from 5 to 95% RH” value ([1]; listed as Mesylate Form A)?
**A.** 9.79% gain from 5 to 95% RH

**Q.** What about the “DVS weight loss from 95 to 5% RH” value [1, 4] of the same molecule?
**A.** about 7.98%

**Q.** And the “DVS weight loss from 95 to 5% RH” value ([1]; listed as Mesylate Form A)?
**A.** 7.98% loss from 95 to 5% RH

**Q.** What about the “DVS weight loss upon drying at 5% RH” value ([1]; listed as Mesylate Form A) of the same molecule?
**A.** 0.17% loss upon drying at 5% RH

**Q.** What about the “Post-DVS XRPD” value ([2]; listed as Mesylate Form A) of the same molecule?
**A.** Mesylate Form B

**Q.** Which “DVS weight gain from 5 to 95% RH” value ([1]; listed as Besylate Form A) does the source give for `Cc1nc2cccc(N)c2c(=O)n1C1CCC(=O)NC1=O` (centres unmarked) [Compound 1 besylate salt Form A, 3-(5-amino-2-methyl-4-oxo-4H-quinazolin-3-yl)-piperidine-2,6-dione] here?
**A.** 4.31% gain from 5 to 95% RH

**Q.** And the “DVS weight gain from 5 to 95% RH” value [1, 5]?
**A.** about 4.31%

**Q.** And the “DVS weight loss from 95 to 5% RH” value ([1]; listed as Besylate Form A)?
**A.** 4.31% loss from 95 to 5% RH

**Q.** And the “DVS weight loss from 95 to 5% RH” value [1, 5]?
**A.** about 4.31%

**Q.** What about the “DVS weight loss upon drying at 5% RH” value ([1]; listed as Besylate Form A) of the same molecule?
**A.** 0.16% loss upon drying at 5% RH

**Q.** And the hygroscopicity ([1]; wording in text, based on DVS)?
**A.** moderately hygroscopic

**Q.** What about the “Post-DVS XRPD” value ([2]; listed as Besylate Form A) of the same molecule?
**A.** Unchanged

**Q.** Which results are given for `Cc1nc2cccc(N)c2c(=O)n1C1CCC(=O)NC1=O` (centres unmarked) [Compound 1 sulfate salt Form A, 3-(5-amino-2-methyl-4-oxo-4H-quinazolin-3-yl)-piperidine-2,6-dione]?
**A.** DVS weight gain from 5 to 95% RH [1, 6]: about 5.36%; DVS weight gain from 5 to 95% RH ([1]; listed as Sulfate Form A): 5.36% gain from 5 to 95% RH; DVS weight loss from 95 to 5% RH [1, 6]: about 5.63%; DVS weight loss from 95 to 5% RH ([1]; listed as Sulfate Form A): 5.63% loss from 95 to 5% RH; DVS weight loss upon drying at 5% RH ([1]; listed as Sulfate Form A): 0.21% loss on drying at 5% RH; Post-DVS XRPD [2]: unchanged; Post-DVS XRPD ([2]; listed as Sulfate Form A): Unchanged
